Data taken from US8569301B2, “6, 6-dioxo-6-thia-1, 4-diaza-naphthalenes as herbicides” (Syngenta Limited, priority 2009, dated 2013).

Legend:
Type in all cases: in vivo
Settings in all cases: sprayed after 8 days cultivation, evaluated after 13 days, scores from 10 to 0 (10=total damage to plant; 0=no damage to plant)
SOLNI = experiment: Example B1 herbicidal action post-emergence, SOLNI
Procedure: (§1) Seeds of a variety of test species were sown in standard soil in pots. After 8 days cultivation (post-emergence) under controlled conditions in a glasshouse (at 24/16° C., day/night; 14 hours light; 65% humidity), the plants were sprayed with an aqueous spray solution derived from the formulation of the technical active ingredient in acetone/water (50:50) solution containing 0.5% Tween 20 (polyoxyethelyene sorbitan monolaurate, CAS RN 9005-64-5). The test plants were then grown under controlled conditions in a glasshouse (at 24/16° C., day/night; 14 hours light; 65% humidity) and watered twice daily. After 13 days, the test was evaluated and the assessed scores, from 10 to 0, are tabulated in Table B1 (10=total damage to plant; 0=no damage to plant).

IPOHE = experiment: Example B1 herbicidal action post-emergence, IPOHE
Procedure: as §1

AMARE = experiment: Example B1 herbicidal action post-emergence, AMARE
Procedure: as §1

SETFA = experiment: Example B1 herbicidal action post-emergence, SETFA
Procedure: as §1

ECHCG = experiment: Example B1 herbicidal action post-emergence, ECHCG
Procedure: as §1

| SMILES | assessed score, application post-emergence, SOLNI (SOLNI; Rate 1000 g/ha) | assessed score, application post-emergence, IPOHE (IPOHE; Rate 1000 g/ha) | assessed score, application post-emergence, AMARE (AMARE; Rate 1000 g/ha) | assessed score, application post-emergence, SETFA (SETFA; Rate 1000 g/ha) | assessed score, application post-emergence, ECHCG (ECHCG; Rate 1000 g/ha) | assessed score, application post-emergence, SOLNI (SOLNI; Rate 250 g/ha) | assessed score, application post-emergence, IPOHE (IPOHE; Rate 250 g/ha) | assessed score, application post-emergence, AMARE (AMARE; Rate 250 g/ha) | assessed score, application post-emergence, SETFA (SETFA; Rate 250 g/ha) | assessed score, application post-emergence, ECHCG (ECHCG; Rate 250 g/ha) |
| --- | --- | --- | --- | --- | --- | --- | --- | --- | --- | --- |
| Cc1cc(C)c(C2=C(O)c3nccnc3CS2(=O)=O)c(C)c1 [Compound C20] | 7 | 7 | 1 | 4 | 4 |  |  |  |  |  |
| O=S1(=O)Cc2nccnc2C(O)=C1c1c(F)ccc(Br)c1Cl [Compound C21, 7-(3-bromo-2-chloro-6-fluoro-phenyl)-6,6-dioxo-5,6-dihydro-6-thia-1,4-diaza-naphthalen-8-ol] | 10 | 8 | 9 | 7 | 7 |  |  |  |  |  |
| O=S1(=O)Cc2nccnc2C(O)=C1c1ccc(Br)cc1C(F)(F)F [Compound C22] | 9 | 7 | 10 | 5 | 5 |  |  |  |  |  |
| O=S1(=O)Cc2nccnc2C(O)=C1c1c(Cl)cc(Cl)cc1Cl [Compound C23] | 9 | 8 | 8 | 7 | 8 |  |  |  |  |  |
| CCc1cc(-c2ccc(Cl)cc2Cl)ccc1C1=C(O)c2nccnc2CS1(=O)=O [Compound C24] | 6 | 3 | 10 | 10 | 7 |  |  |  |  |  |
| CCC1c2nccnc2C(O)=C(c2c(Cl)cccc2C(F)(F)F)S1(=O)=O (stereo not shown) [Compound E1, 7-(2-chloro-6-trifluoromethyl-phenyl)-5-ethyl-6,6-dioxo-5,6-dihydro-6-thia-1,4-diaza-naphthalen-8-ol] | 9 | 7 | 9 | 8 | 7 |  |  |  |  |  |
| O=S1(=O)C(c2c(F)ccc(Br)c2Cl)=C(O)c2nccnc2C1CC(F)F (stereo not shown) [Compound E9] | 9 | 8 | 10 | 5 | 3 |  |  |  |  |  |
| CCC1c2nccnc2C(O)=C(c2c(F)ccc(Br)c2Cl)S1(=O)=O (stereo not shown) [Compound E10] |  |  |  |  |  | 7 | 8 | 7 | 7 | 4 |
| CC1c2nccnc2C(O)=C(c2c(F)ccc(Br)c2Cl)S1(=O)=O (stereo not shown) [Compound E11] | 10 | 9 | 8 | 8 | 8 |  |  |  |  |  |
| CCC1c2nccnc2C(O)=C(c2ccc(Br)cc2C(F)(F)F)S1(=O)=O (stereo not shown) [Compound E14] | 10 | 7 | 9 | 6 | 7 |  |  |  |  |  |
| C#CCC1c2nccnc2C(O)=C(c2c(C)cc(C)cc2C)S1(=O)=O (stereo not shown) [Compound E16] | 8 | 5 | 5 | 2 | 2 |  |  |  |  |  |
| Cc1cc(C)c(C2=C(O)c3nccnc3C(CC(F)F)S2(=O)=O)c(C)c1 (stereo not shown) [Compound E17] | 7 | 7 | 10 | 10 | 10 |  |  |  |  |  |
| Cc1cc(C)c(C2=C(O)c3nccnc3C(C)S2(=O)=O)c(C)c1 (stereo not shown) [Compound E19] | 8 | 7 | 3 | 5 | 5 |  |  |  |  |  |
| CC#CCC1c2nccnc2C(O)=C(c2c(F)ccc(Br)c2Cl)S1(=O)=O (stereo not shown) [Compound E21] | 9 | 8 | 6 | 4 | 7 |  |  |  |  |  |
| O=S1(=O)C(c2c(F)ccc(Br)c2Cl)=C(O)c2nccnc2C1Cc1ccccc1 (stereo not shown) [Compound E23] | 8 | 6 | 6 | 4 | 8 |  |  |  |  |  |
| O=S1(=O)C(c2c(F)ccc(Br)c2Cl)=C(O)c2nccnc2C1Cc1ccc(Cl)s1 (stereo not shown) [Compound E24] | 7 | 5 | 6 | 0 | 0 |  |  |  |  |  |
| Cc1cc(C)c(C2=C(O)c3nccnc3C(C)(C)S2(=O)=O)c(C)c1 [Compound F1, 5,5-dimethyl-6,6-dioxo-7-(2,4,6-trimethyl-phenyl)-5,6-dihydro-6-thia-1,4-diaza-naphthalen-8-ol] | 10 | 8 | 10 | 8 | 8 |  |  |  |  |  |
| CC1(C)c2nccnc2C(O)=C(c2c(F)ccc(Br)c2Cl)S1(=O)=O [Compound F2] | 10 | 9 | 10 | 9 | 8 |  |  |  |  |  |
| O=S1(=O)C(c2c(Cl)cccc2C(F)(F)F)=C(O)c2nccnc2C12CC2 [Compound F4] | 9 | 7 | 9 | 8 | 6 |  |  |  |  |  |
| CC1(C)c2nccnc2C(O)=C(c2cc(Cl)ccc2C(F)(F)F)S1(=O)=O [Compound F5] | 10 | 9 | 10 | 6 | 8 |  |  |  |  |  |
| CC1(C)c2nccnc2C(O)=C(c2ccc(Br)cc2C(F)(F)F)S1(=O)=O [Compound F6] |  |  |  |  |  | 9 | 8 | 9 | 8 | 9 |
| O=S1(=O)C(c2c(F)ccc(Br)c2Cl)=C(O)c2nccnc2C12CCC2 [Compound F7] | 5 | 6 | 4 | 1 | 1 |  |  |  |  |  |
| CC1(C)c2nccnc2C(O)=C(c2c(Cl)cccc2C(F)(F)F)S1(=O)=O [Compound F9] | 8 | 9 | 9 | 8 | 8 |  |  |  |  |  |
